In PMC4337988 (Science (New York, N.Y.), 2014):

Tests used:
[1] = biological target: BcPyrR ([Bacillus] caldolyticus, UniProt P41007); experiment: SEC-MALS; assay type: binding; settings: 50 mM Tris pH 7.5, 150 mM NaCl, 1 mM DTT, room temperature; allosteric
[2] = biological target: BsPyrR (Bacillus subtilis, UniProt P39765); experiment: SEC-MALS; assay type: binding; settings: 50 mM Tris pH 7.5, 150 mM NaCl, 1 mM DTT, room temperature; allosteric
BsPyrR, sequence (P39765 whole entry): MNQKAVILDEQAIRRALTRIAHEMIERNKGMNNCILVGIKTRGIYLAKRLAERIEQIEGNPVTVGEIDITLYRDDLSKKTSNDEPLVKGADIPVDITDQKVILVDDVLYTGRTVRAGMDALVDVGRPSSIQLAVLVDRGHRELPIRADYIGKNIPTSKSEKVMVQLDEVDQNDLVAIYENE

BcPyrR, sequence (P41007 whole entry): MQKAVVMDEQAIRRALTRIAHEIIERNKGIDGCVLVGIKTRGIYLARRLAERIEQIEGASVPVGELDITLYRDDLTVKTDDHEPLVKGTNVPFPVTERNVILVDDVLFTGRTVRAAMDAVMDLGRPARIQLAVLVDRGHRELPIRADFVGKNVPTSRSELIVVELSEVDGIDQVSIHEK

O=c1ccn([C@@H]2O[C@H](COP(=O)(O)O)[C@@H](O)[C@H]2O)c(=O)[nH]1 [UMP]
SEC-MALS (oligomeric state shift) [1]: both UMP and GMP stabilize the tetrameric state of PyrR
SEC-MALS (oligomeric state shift) [2]: both UMP and GMP stabilize the tetrameric state of PyrR

Nc1nc2c(ncn2[C@@H]2O[C@H](COP(=O)(O)O)[C@@H](O)[C@H]2O)c(=O)[nH]1 [GMP]
SEC-MALS (oligomeric state shift) [1]: We analysed the oligomeric state of BsPyrR and BcPyrR by SEC-MALS upon addition of allosteric ligands
